Test results published in patent publication US20130136722A1, “Methods of Ex Vivo Expansion of Blood Progenitor Cells, and Generation of Composite Grafts” (The Board of Trustees of The University of Illinois, priority 2011, published 2013).

Tests used:
Type in all cases: cell-based, human
[1] = test system: colony-forming cells (CFC); test: Colony-forming cell (CFC) assay of CMA expanded CB cells; conditions: mean ± SEM of three independent experiments
Experimental: (§1) Colony-forming cell (CFC) were assayed by plating 5×10^2 cells per dish in semisolid media and were counted after 14 days as described (Araki et al., 2009, Id.). The number of cobble stone area-forming cell (CAFC) was quantitated in primary and expanded CD34+ cells by plating in limiting dilution onto irradiated M2-10B4 stromal cells as described (Araki et al., 2009, Id.; Conneally et al., 1997, Proc. Natl. Acad. Sci. USA. 94: 9836-9841; Taswell, 1981, J. Immunol. 126: 1614-1619).
(§2) In order to determine the a correlation between expansion of CD34^+CD90^+ cells and their functional potential as pluripotent hematopoietic stem cells, in vitro functional assays were performed, including assessment of colony-forming cells (CFC), a short-term assay, and cobblestone-area forming cells (CAFC), a long-term assay.

[2] = test system: cord blood-derived CD34+CD90+ cells; test: Ex vivo expansion culture of cord blood CD34+ cells with chromatin modifying agents, flow cytometry for CD34/CD90; conditions: for cells co-expressing CD34+ and CD90+ / fold expansion of CD34+CD90+ cells / expansion of CD34+CD90+ cells (in words): 9 days of culture; for cells co-expressing CD34+ and CD90+: cytokines (SCF, Flt3-ligand, TPO, IL-3) plus CMA, FIG. 1A; for fold expansion of CD34+CD90+ cells: cytokines plus CMA; for fold expansion of CD34+CD90+ cells / expansion of CD34+CD90+ cells (in words): FIG. 1B; for CD34+CD90+ (%): mean ± SEM of three independent experiments
Description: Freshly collected human CB was obtained from the New York Blood Center (New York, N.Y.) according to Institutional Review Board guidelines. Low density CB cells (<1.077 g/ml) were obtained by density centrifugation on Ficoll-Paque PLUS (GE Healthcare Bio-Sciences AB, Uppsala, Sweden), from which CD34^+ cells were immunomagnetically isolated by the MACS CD34 progenitor isolation kit (Miltenyi Biotech, Inc., Auburn, Calif.) as described in Araki et al., 2009, Exp Hematol. 37: 1084-1095). The purity of isolated CD34^+ cells routinely ranged from 90-99%.
CD34^+ cell expansion culture with or without CMA was carried out as described (Araki et al., 2009, Id.; Araki et al. 2006, Exp Hematol. 34: 140-149; Araki et al, 2007, Blood 109: 3570-3578.). All other HDAC inhibitors including 1 mM VPA (Sigma), TSA (5 ng/mL), NA (5 mM) or 5 μM of Suberoylanilide hydroxamic acid (SAHA; BioVision, Inc. Mountain View, Calif.) was added twice at 0 hr and after changing media at 48 hrs of culture. HDAC inhibitors were added only once (48 hr) when used in combination with a DNMT inhibitor as described (Araki et al., 2009, Id.; Araki et al., 2006, Id.; Himburg et al., 2010, Nat. Med. 16: 475-482).
Flow cytometric analysis was carried out as described (Araki et al., 2009, Id.; Araki et al. 2006, Id.; Araki et al, 2007, Id.). All antibodies were purchased from BD Bioscience (San Jose, Calif.). All analyses were paired with the corresponding matched isotype control and at least 10,000 live cells were acquired for each analysis (CellQuest software, Becton Dickinson).
In order to compare the effects of various chromatin modifying agents (CMAs) on the degree of expansion of cord blood-derived, primitive subpopulation of CD34^+ cells, valproic acid (VPA), trichostatin A (TSA), nicotinic acid (NA), suberoylanilide hydroxamic acid (SAHA) or 5-aza-2′-deoxycytidine (5azaD) as single agents or in combination was tested in vitro. The results of fluorescence-activated cell sorting experiments performed on cord blood-derived CD34^+/CD90^+ cells treated with CMA agents is shown in FIG. 1A.

[3] = test system: cobblestone area-forming cells (CAFC); test: Cobblestone area-forming cell (CAFC) assay, limiting dilution on M2-10B4 stromal cells; conditions: limiting dilution; mean ± SEM of three independent experiments
Experimental: as §1, §2

| Structure (SMILES) | CFC PE (%) (Colony Forming Cell Plating Efficiency) [1] | cells co-expressing CD34+ and CD90+ [2] [%] | fold expansion of CD34+CD90+ cells [2] [fold] | CD34+CD90+ (%) [2] | CAFC Frequency/10^4 cells [3] | expansion of CD34+CD90+ cells (in words) [2] |
| --- | --- | --- | --- | --- | --- | --- |
| Nc1ncn([C@H]2C[C@H](O)[C@@H](CO)O2)c(=O)n1 [5azaD, 5-aza-2′-deoxycytidine] | 8.70 ± 1.37 | 2 | 1.2±0.5 | 2.33 ± 0.60% | 21.73 ± 14.57 /10^4 cells | – |
| O=C(O)c1cccnc1 [NA, nicotinic acid] | – | 6 | 2.1 | – | – | did not promote the expansion |
| O=C(CCCCCCC(=O)Nc1ccccc1)NO [SAHA, suberoylanilide hydroxamic acid] | – | 3 | 1.2 | – | – | did not promote the expansion |
| CC(/C=C/C(=O)NO)=C\[C@@H](C)C(=O)c1ccc(N(C)C)cc1 [TSA, trichostatin A] | 4.97 ± 0.39 | 5 | 7.8±3.5 | 5.60 ± 0.29^¤ % | 6.39 ± 4.81 /10^4 cells | – |
